Experiment [1] has as its system HL-60. Briefly: Photocytotoxicity against human HL60 cells irradiated with 1.25 J cm^-2 UVA dose after 72 hrs by MTT assay. The format is functional. As to conditions: HL-60, light or radiation study. In general terms: Tetrazolium assays rely on reduction of a dye to a coloured formazan, in cell work by metabolically active cells.
In experiment [2] the test system is Mycobacterium tuberculosis. The experiment in a line: Antimycobacterial activity against Mycobacterium tuberculosis H37Rv. The format is functional.
In experiment [3] the test system is Mycobacterium tuberculosis. The experiment in a line: Antimycobacterial activity against Mycobacterium tuberculosis H37Rv relative to control. The experiment is classed as functional. Also noted: concentration or dose not given beside the values.
Experiment [4] is described as follows: Inhibition of oxygen evolution rate in spinach chloroplasts. The experiment is classed as functional, Spinacia oleracea.
The subject of another experiment is Chlorella vulgaris. Briefly: Antialgal activity against Chlorella vulgaris assessed as inhibition of chlorophyll production. The format is functional, organism-based.
Experiment [5] deals with LoVo. The experiment in a line: Photocytotoxicity against human LoVo cells irradiated with 1.25 J cm^-2 UVA dose after 72 hrs by MTT assay. The experiment is classed as functional. The note with it: light or radiation study.
For experiment [6], the system named is LoVo. Briefly: Photocytotoxicity against human LoVo cells irradiated with 2.5 J cm^-2 UVA dose after 72 hrs by MTT assay. As to conditions: light or radiation study. The format is functional.
The subject of experiment [7] is HL-60. Briefly: Cell cycle arrest in human HL60 cells irradiated with 2.5 J cm^-2 CUVA assessed as accumulation at G1 phase at 2.5 mM after 24 hrs. The format is functional.
Experiment [8] deals with HL-60. The experiment in a line: Cell cycle arrest in human HL60 cells irradiated with 2.5 J cm^-2 CUVA assessed as accumulation at G1 phase at 2.5 mM after 48 hrs. The format is functional.
In experiment [9] the test system is HL-60. Briefly: Cell cycle arrest in human HL60 cells irradiated with 2.5 J cm^-2 CUVA assessed as accumulation at G1 phase at 2.5 mM after 72 hrs. The format is functional.
Experiment [10] deals with HL-60. Briefly: Cell cycle arrest in human HL60 cells irradiated with 2.5 J cm^-2 CUVA assessed as accumulation at G2 phase at 2.5 mM after 24 hrs. The experiment is classed as functional.
The subject of experiment [11] is HL-60. The experiment in a line: Cell cycle arrest in human HL60 cells irradiated with 2.5 J cm^-2 CUVA assessed as accumulation at G2 phase at 2.5 mM after 48 hrs. The format is functional.
For experiment [12], the system named is HL-60. Briefly: Cell cycle arrest in human HL60 cells irradiated with 2.5 J cm^-2 CUVA assessed as accumulation at G2 phase at 2.5 mM after 72 hrs. The experiment is classed as functional.
The test system of experiment [13] is HL-60. The experiment in a line: Cell cycle arrest in human HL60 cells irradiated with 2.5 J cm^-2 CUVA assessed as accumulation at S phase at 2.5 mM after 24 hrs. The format is functional.
Experiment [14] concerns HL-60. Briefly: Cell cycle arrest in human HL60 cells irradiated with 2.5 J cm^-2 CUVA assessed as accumulation at S phase at 2.5 mM after 48 hrs. The format is functional.
The test system of experiment [15] is HL-60. The experiment in a line: Cell cycle arrest in human HL60 cells irradiated with 2.5 J cm^-2 CUVA assessed as accumulation at S phase at 2.5 mM after 72 hrs. The experiment is classed as functional.
The test system of experiment [16] is HL-60. The experiment in a line: Induction of apoptosis in human HL60 cells irradiated with 2.5 J cm^-2 CUVA assessed as appearance of sub G1 peak at 2.5 mM after 24 hrs. The format is functional.
Experiment [17] concerns HL-60. The experiment in a line: Induction of apoptosis in human HL60 cells irradiated with 2.5 J cm^-2 CUVA assessed as appearance of sub G1 peak at 2.5 mM after 48 hrs. The experiment is classed as functional.
For experiment [18], the system named is HL-60. The experiment in a line: Induction of apoptosis in human HL60 cells irradiated with 2.5 J cm^-2 CUVA assessed as appearance of sub G1 peak at 2.5 mM after 72 hrs. The format is functional.
The subject of experiment [19] is HL-60. The experiment in a line: Cell cycle arrest in human HL60 cells irradiated with 2.5 J cm^-2 CUVA assessed as accumulation at G1 phase at 5 mM after 24 hrs. The format is functional.
For experiment [20], the system named is HL-60. The experiment in a line: Cell cycle arrest in human HL60 cells irradiated with 2.5 J cm^-2 CUVA assessed as accumulation at G1 phase at 5 mM after 48 hrs. The format is functional.
Experiment [21] deals with HL-60. The experiment in a line: Cell cycle arrest in human HL60 cells irradiated with 2.5 J cm^-2 CUVA assessed as accumulation at G1 phase at 5 mM after 72 hrs. The format is functional.
For experiment [22], the system named is HL-60. Briefly: Cell cycle arrest in human HL60 cells irradiated with 2.5 J cm^-2 CUVA assessed as accumulation at G2 phase at 5 mM after 24 hrs. The experiment is classed as functional.
The test system of experiment [23] is HL-60. Briefly: Cell cycle arrest in human HL60 cells irradiated with 2.5 J cm^-2 CUVA assessed as accumulation at G2 phase at 5 mM after 48 hrs. The experiment is classed as functional.
Experiment [24] relates to HL-60. The experiment in a line: Cell cycle arrest in human HL60 cells irradiated with 2.5 J cm^-2 CUVA assessed as accumulation at G2 phase at 5 mM after 72 hrs. The format is functional.
Experiment [25] has as its system HL-60. The experiment in a line: Cell cycle arrest in human HL60 cells irradiated with 2.5 J cm^-2 CUVA assessed as accumulation at S phase at 5 mM after 24 hrs. The experiment is classed as functional.
Experiment [26] relates to HL-60. The experiment in a line: Cell cycle arrest in human HL60 cells irradiated with 2.5 J cm^-2 CUVA assessed as accumulation at S phase at 5 mM after 48 hrs. The experiment is classed as functional.
Experiment [27] has as its system HL-60. The experiment in a line: Cell cycle arrest in human HL60 cells irradiated with 2.5 J cm^-2 CUVA assessed as accumulation at S phase at 5 mM after 72 hrs. The experiment is classed as functional.
Experiment [28] concerns HL-60. The experiment in a line: Induction of apoptosis in human HL60 cells irradiated with 2.5 J cm^-2 CUVA assessed as appearance of sub G1 peak at 5 mM after 24 hrs. The experiment is classed as functional.
Experiment [29] concerns HL-60. Briefly: Induction of apoptosis in human HL60 cells irradiated with 2.5 J cm^-2 CUVA assessed as appearance of sub G1 peak at 5 mM after 48 hrs. The experiment is classed as functional.
Experiment [30] relates to HL-60. The experiment in a line: Induction of apoptosis in human HL60 cells irradiated with 2.5 J cm^-2 CUVA assessed as appearance of sub G1 peak at 5 mM after 72 hrs. The format is functional.

Consider nine compounds from ChEMBL document CHEMBL1145352, “Synthesis and cytotoxic activity of trisubstituted-1,3,5-triazines” (Bioorg Med Chem Lett, 2007).

Converted amounts (≈) assume the structure as drawn. Some results are limits rather than exact numbers.

For `CNc1nc(NC)nc(NC)n1`, the GI50 (in general, the concentration giving 50% growth inhibition) in the experiment with HL-60 [1] was over 10 mM. In addition, in experiment [2], the MIC – broadly, the lowest concentration that inhibits growth of the organism – was over 6.25 µg/mL. For the same compound, in [3], the Inhibition (commonly the relative decrease from the control value, in per cent) was found to be 24%. Also, the values for the IC50 (in experiment [4]; with Chlorella vulgaris) were 0.118 mmol/dm3 and 0.356 mmol/dm3, respectively.

`CC(=O)Nc1nc(NC(C)=O)nc(NC(C)=O)n1`: the results for the GI50 in the experiment on HL-60 [1], with LoVo [5] and in the experiment with LoVo [6] were 6.8 mM, 3.5 mM and 1.89 mM, respectively. In experiment [2], this compound showed an MIC of over 6.25 µg/mL. In addition, the Activity turned out to be 29.3% in the experiment on HL-60 [7]; 44.5% in the experiment on HL-60 [8]; 45.2% in the experiment with HL-60 [9]; 10.8% in the experiment on HL-60 [10]; 10.3% in the experiment on HL-60 [11]; 12% in the experiment with HL-60 [12]. Also, the Activity in the experiment on HL-60 [13] is 58.4%; in the experiment with HL-60 [14], 45%; in the experiment with HL-60 [15], 43.8%; in the experiment with HL-60 [16], 13.2%; in the experiment with HL-60 [17], 27%; in the experiment on HL-60 [18], 40.5%. Also, the Activity in the experiment on HL-60 [19] turned out to be 34.2%; in the experiment on HL-60 [20], 50.3%; with HL-60 [21] it was 57.3%; with HL-60 [22], 11.1%; with HL-60 [23], 11.7%; with HL-60 [24], 6.9%. The Activity in the experiment with HL-60 [25] is 54.3%; in the experiment on HL-60 [26], 38.6%; with HL-60 [27], 37.1%; with HL-60 [28], 21%; in the experiment on HL-60 [29], 26%; in the experiment with HL-60 [30], 46%. The compound further showed an Inhibition in experiment [3] of 11%. For the same compound, the IC50 in [4] was 0.148 mmol/dm3; in the experiment with Chlorella vulgaris, 0.208 mmol/dm3.

`CCN(CC)c1nc(N(CC)CC)nc(N(CC)CC)n1`: the GI50 in the experiment with HL-60 [1] is over 10 mM; in the experiment on LoVo [5], over 20 mM; in the experiment with LoVo [6], 12.5 mM. The compound also gave an MIC in [2] of over 6.25 µg/mL. The Inhibition in experiment [3] is on record as 0%. The values for the IC50 (in [4]; in the experiment on Chlorella vulgaris) were 0.244 mmol/dm3 and 0.067 mmol/dm3, respectively.

In experiment [2], `CO[C@H]1/C=C/O[C@@]2(C)Oc3c(C)c(O)c4c(O)c(c(/C=N/N5CCN(C)CC5)c(O)c4c3C2=O)NC(=O)/C(C)=C\C=C\[C@H](C)[C@H](O)[C@@H](C)[C@@H](O)[C@@H](C)[C@H](OC(C)=O)[C@@H]1C` [RIFAMPIN] yielded an MIC of 0.125 µg/mL (≈ 0.152 µM). This compound showed an Inhibition in experiment [3] of 100%.

Turning to `Oc1nc(O)nc(O)n1`, the GI50 with HL-60 [1] turned out to be 4.3 mM. Further, the MIC in experiment [2] is over 6.25 µg/mL. Also, the Inhibition in experiment [3] came out at 39%. The compound also displayed an IC50 in [4] of 0.081 mmol/dm3.

Consider `CN(C)C(=O)Nc1ccc(Cl)c(Cl)c1` [DCMU], for which the IC50 came out at 0.0019 mmol/dm3 in [4] and 0.0073 mmol/dm3 in the experiment on Chlorella vulgaris.

For the compound `c1ccc(Nc2nc(Nc3ccccc3)nc(Nc3ccccc3)n2)cc1`, the GI50 in the experiment with HL-60 [1] is over 10 mM. The MIC in experiment [2] was over 6.25 µg/mL. For the same compound, the Inhibition in [3] is 0%. This compound registered an IC50 in experiment [4] of 1.072 mmol/dm3.

In the case of `CN(C)c1nc(N(C)C)nc(N(C)C)n1` [ALTRETAMINE], the GI50 with HL-60 [1] was over 10 mM; with LoVo [5] it was 17.2 mM; in the experiment with LoVo [6] it was 10.3 mM. In [2], this compound returned an MIC of over 6.25 µg/mL. The compound further had an Inhibition in [3] of 28%. Moreover, the IC50 in experiment [4] is listed as 0.486 mmol/dm3; in the experiment on Chlorella vulgaris, 0.125 mmol/dm3.

In the case of `COc1ccc(Nc2nc(Nc3ccc(OC)cc3)nc(Nc3ccc(OC)cc3)n2)cc1`, the GI50 in the experiment with HL-60 [1] was 3.4 mM. For the same compound, in experiment [2], the MIC was over 6.25 µg/mL. In experiment [3], this compound gave an Inhibition of 72%. The figures for the IC50 (in experiment [4]; in the experiment with Chlorella vulgaris) were 0.241 mmol/dm3 and 0.079 mmol/dm3, respectively.
